Results reported in PubChem BioAssay AID328 (DTP/NCI, 2004).
Values joined by “and” are separate entries in the source; they are usually repeats but may differ in a detail not shown here. Equal values may be shown once. Inconclusive results and toxic doses are left out.

Test system: BDF1 mice, P388 leukemia ip, median survival T/C
Assay: NCI In Vivo Anticancer Drug Screen. Data for tumor model P388 Leukemia (intraperitoneal) in B6D2F1 (BDF1) mice
Settings: endpoint: median survival time, higher = longer survival
Outline: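 Transplantable tumour in mice; compound vs vehicle dosing; survival scored; ratio of treated to control reported.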

[1] = dose: 100.0 mg/kg/injection, schedule: Q01DX009 (ip), vehicle: saline
[2] = dose: 100.0 mg/kg/injection, schedule: Q04DX003 (ip), vehicle: saline
[3] = dose: 200.0 mg/kg/injection, schedule: Q01DX009 (ip), vehicle: saline
[4] = dose: 100.0 mg/kg/injection, schedule: Q04DX003 (ip), vehicle: Klucel (hydroxypropylcellulose) (HPC)
[5] = dose: 200.0 mg/kg/injection, schedule: Q04DX003 (ip), vehicle: Klucel (hydroxypropylcellulose) (HPC)
[6] = dose: 25.0 mg/kg/injection, schedule: Q04DX003 (ip), vehicle: saline with Tween-80
[7] = dose: 50.0 mg/kg/injection, schedule: Q04DX003 (ip), vehicle: saline with Tween-80
[8] = dose: 100.0 mg/kg/injection, schedule: Q04DX003 (ip), vehicle: saline with Tween-80
[9] = dose: 50.0 mg/kg/injection, schedule: Q01DX009 (ip), vehicle: saline with Tween-80
[10] = dose: 100.0 mg/kg/injection, schedule: Q01DX009 (ip), vehicle: saline with Tween-80
[11] = dose: 200.0 mg/kg/injection, schedule: Q01DX009 (ip), vehicle: saline with Tween-80
[12] = dose: 400.0 mg/kg/injection, schedule: Q01DX009 (ip), vehicle: saline
[13] = dose: 50.0 mg/kg/injection, schedule: Q01DX009 (ip), vehicle: saline
[14] = dose: 200.0 mg/kg/injection, schedule: Q04DX003 (ip), vehicle: saline with Tween-80
[15] = dose: 400.0 mg/kg/injection, schedule: Q04DX003 (ip), vehicle: saline with Tween-80

For Cc1ccc(/C=C2\NC(=O)NC2=O)cc1, the T/C (dose: 25.0 mg/kg/injection, schedule: Q01DX009 (ip), vehicle: water) was 106 % of control, the T/C (dose: 50.0 mg/kg/injection, schedule: Q01DX009 (ip), vehicle: water) was 106 % of control and the T/C (dose: 50.0 mg/kg/injection, schedule: Q04DX003 (ip), vehicle: water) was 94 % of control. The T/C (dose: 100.0 mg/kg/injection, schedule: Q01DX009 (ip), vehicle: water) was 95 % of control, the T/C (dose: 100.0 mg/kg/injection, schedule: Q04DX003 (ip), vehicle: water) was 106 % of control and the T/C (dose: 200.0 mg/kg/injection, schedule: Q01DX009 (ip), vehicle: water) was 98 % of control. The T/C (dose: 200.0 mg/kg/injection, schedule: Q04DX003 (ip), vehicle: water) was 103 % of control, the T/C (dose: 400.0 mg/kg/injection, schedule: Q01DX009 (ip), vehicle: water) was 94 % of control and the T/C (dose: 400.0 mg/kg/injection, schedule: Q04DX003 (ip), vehicle: water) was 97 % of control.
With CC(CS(=O)(=O)O)N1CCOCC1 (centres undefined) the T/C [1] was 91 % of control, the T/C [2] was 104 % of control and the T/C [3] was 104 % of control. For the same compound, the T/C (dose: 200.0 mg/kg/injection, schedule: Q04DX003 (ip), vehicle: saline) was 100 % of control and the T/C (dose: 400.0 mg/kg/injection, schedule: Q04DX003 (ip), vehicle: saline) was 95 % of control.
In the case of Nc1ccc2ccccc2c1N=Nc1ccccc1, the T/C [4] is reported as 109 % of control and the T/C [5] is reported as 123 % of control.
For CN(C)CCCNc1nc(NCCCN(C)C)c2nc(-c3ccccc3)c(-c3ccccc3)nc2n1, the T/C (dose: 50.0 mg/kg/injection, schedule: Q01DX005 (ip), vehicle: saline with Tween-80) was 104 % of control.
For NC(=S)N/N=C\c1ccc(/C=N/NC(N)=S)cc1, the T/C [6] was 111 % of control, the T/C [7] was 108 % of control and the T/C [8] was 100 % of control.
With Cc1ccc(S(=O)(=O)OC2CS(=O)(=O)C2)cc1 the T/C (dose: 25.0 mg/kg/injection, schedule: Q01DX009 (ip), vehicle: saline with Tween-80) was 102 % of control, the T/C [9] was 100 % of control and the T/C [10] was 102 % of control. The T/C [11] was 102 % of control.
In the case of O=C1OC(=O)C2C1C(c1ccc(Cl)cc1)N1C3C(=O)OC(=O)C3C(c3ccc(Cl)cc3)N21 (centres undefined), the T/C [9] is reported as 97 % of control, the T/C [10] is reported as 93 % of control and the T/C [11] is reported as 88 % of control.
COC(=O)[C@@H]1[C@H](O)[C@H](C)[C@H](O)[C@@](C)(O)/C=C\C=C(C)C(=O)Nc2c(C)c(OC(C)=O)c3c(c2O)C(=O)C(C)=C2OCOC(=C23)C(C)=C[C@@](C)(O)[C@H](O)[C@@H](C)[C@H]1OC(C)=O was tested, and the T/C (dose: 100.0 mg/kg/injection, schedule: Q01DX009 (ip), vehicle: Klucel (hydroxypropylcellulose) (HPC)) was 93 % of control and 105 % of control, the T/C (dose: 200.0 mg/kg/injection, schedule: Q01DX009 (ip), vehicle: Klucel (hydroxypropylcellulose) (HPC)) was 120 % of control and 108 % of control and the T/C (dose: 400.0 mg/kg/injection, schedule: Q01DX009 (ip), vehicle: Klucel (hydroxypropylcellulose) (HPC)) was 121 % of control and 113 % of control. For the same compound, the T/C [12] was 90 % of control.
In the case of Cc1ccc(/C(CN2CCOCC2)=N\O)cc1, the T/C (dose: 50.0 mg/kg/injection, schedule: Q01DX001 (ip), vehicle: saline sonified) is reported as 105 % of control, the T/C (dose: 100.0 mg/kg/injection, schedule: Q01DX001 (ip), vehicle: saline sonified) is reported as 105 % of control and the T/C (dose: 200.0 mg/kg/injection, schedule: Q01DX001 (ip), vehicle: saline sonified) is reported as 105 % of control.
CC1(C)N=C(N)N=C(N)N1c1ccc(CCc2ccc(S(=O)(=O)F)cc2)c(Cl)c1 was tested, and the T/C (dose: 33.0 mg/kg/injection, schedule: Q04DX003 (ip), vehicle: saline sonified) was 122 % of control and the T/C [10] was 159 % of control.
CS(=O)(=O)OCCN(CCOS(C)(=O)=O)c1cccc(Cl)c1 was tested, and the T/C (dose: 1.0 mg/kg/injection, schedule: Q04DX003 (ip), vehicle: saline with Tween-80) was 100 % of control, the T/C (dose: 2.0 mg/kg/injection, schedule: Q04DX003 (ip), vehicle: saline with Tween-80) was 100 % of control and the T/C (dose: 4.0 mg/kg/injection, schedule: Q04DX003 (ip), vehicle: saline with Tween-80) was 172 % of control. The T/C (dose: 6.25 mg/kg/injection, schedule: Q01DX009 (ip), vehicle: other) was 163 % of control, the T/C (dose: 6.25 mg/kg/injection, schedule: Q04DX003 (ip), vehicle: saline) was 110 % of control and the T/C (dose: 8.0 mg/kg/injection, schedule: Q04DX003 (ip), vehicle: saline with Tween-80) was 177 % of control. The T/C (dose: 12.5 mg/kg/injection, schedule: Q01DX009 (ip), vehicle: Klucel (hydroxypropylcellulose) (HPC)) was 168 % of control, the T/C (dose: 12.5 mg/kg/injection, schedule: Q01DX009 (ip), vehicle: other) was 200 % of control and the T/C (dose: 18.7 mg/kg/injection, schedule: Q01DX009 (ip), vehicle: Klucel (hydroxypropylcellulose) (HPC)) was 186 % of control. For the same compound, the T/C (dose: 22.0 mg/kg/injection, schedule: Q04DX003 (ip), vehicle: other) was 240 % of control, the T/C (dose: 25.0 mg/kg/injection, schedule: Q01DX009 (ip), vehicle: other) was 95 % of control and the T/C (dose: 50.0 mg/kg/injection, schedule: Q04DX003 (ip), vehicle: other) was 90 % of control. The T/C (dose: 75.0 mg/kg/injection, schedule: Q04DX003 (ip), vehicle: other) was 90 % of control.
For O=C(Nc1ccc(C2=NCCN2)cc1)c1ccc(C(=O)Nc2ccc(C3=NCCN3)cc2)c([N+](=O)[O-])c1, the T/C (dose: 6.0 mg/kg/injection, schedule: Q01DX010 (ip), vehicle: saline) was 163 % of control, the T/C (dose: 8.0 mg/kg/injection, schedule: Q01DX010 (ip), vehicle: saline) was 168 % of control and the T/C (dose: 12.0 mg/kg/injection, schedule: Q01DX010 (ip), vehicle: saline) was 113 % of control.
COc1ccc(OC(=O)Nc2ccccc2OC)cc1 was tested, and the T/C [4] was 91 % of control, the T/C [5] was 91 % of control and the T/C (dose: 400.0 mg/kg/injection, schedule: Q04DX003 (ip), vehicle: Klucel (hydroxypropylcellulose) (HPC)) was 87 % of control.
CC1(C)N=C(N)N=C(N)N1c1cccc(CN)c1 was tested, and the T/C (dose: 12.5 mg/kg/injection, schedule: Q04DX003 (ip), vehicle: saline) was 90 % of control, the T/C (dose: 25.0 mg/kg/injection, schedule: Q01DX009 (ip), vehicle: saline) was 100 % of control and the T/C (dose: 25.0 mg/kg/injection, schedule: Q04DX003 (ip), vehicle: saline) was 100 % of control. The T/C [13] was 95 % of control and 105 % of control, the T/C (dose: 50.0 mg/kg/injection, schedule: Q04DX003 (ip), vehicle: saline) was 100 % of control and the T/C [1] was 90 % of control and 110 % of control. For the same compound, the T/C [2] was 104 % of control.
In the case of CCNC(C)(C)C(Cl)c1ccc(Cl)s1 (centres undefined), the T/C (dose: 25.0 mg/kg/injection, schedule: Q01DX009 (ip), vehicle: Klucel (hydroxypropylcellulose) (HPC)) is reported as 91 % of control, the T/C [6] is reported as 104 % of control and the T/C (dose: 50.0 mg/kg/injection, schedule: Q01DX009 (ip), vehicle: Klucel (hydroxypropylcellulose) (HPC)) is reported as 104 % of control. For the same compound, the T/C [7] was 101 % of control and the T/C [8] was 95 % of control.
For Cc1ccc(-c2nn3c(-c4ccccc4)nnc3o2)cc1, the T/C [8] was 110 % of control, the T/C [14] was 115 % of control and the T/C [15] was 105 % of control.
With CSc1nnc([N+](=O)[O-])s1 the T/C (dose: 1.56 mg/kg/injection, schedule: Q01DX009 (ip), vehicle: Klucel (hydroxypropylcellulose) (HPC)) was 110 % of control, the T/C (dose: 3.12 mg/kg/injection, schedule: Q01DX009 (ip), vehicle: Klucel (hydroxypropylcellulose) (HPC)) was 100 % of control and the T/C (dose: 6.25 mg/kg/injection, schedule: Q01DX009 (ip), vehicle: Klucel (hydroxypropylcellulose) (HPC)) was 110 % of control.
C=C(C)C(=O)OC1CCCCC1 was tested, and the T/C [1] was 111 % of control, the T/C [3] was 100 % of control and the T/C [12] was 117 % of control.
For Cc1cc(C)c(C#N)c(=O)[nH]1, the T/C [13] was 99 % of control and the T/C [1] was 94 % of control.
Cc1nnc2c(=O)[nH]ccn12 was tested, and the T/C (dose: 100.0 mg/kg/injection, schedule: Q01DX001 (ip), vehicle: saline with Tween-80) was 106 % of control, the T/C (dose: 200.0 mg/kg/injection, schedule: Q01DX001 (ip), vehicle: saline with Tween-80) was 100 % of control and the T/C (dose: 400.0 mg/kg/injection, schedule: Q01DX001 (ip), vehicle: saline with Tween-80) was 103 % of control.
Cc1ccc(C)c(Cc2c(C=O)[nH]c(=S)[nH]c2=O)c1 was tested, and the T/C [8] was 100 % of control, the T/C [14] was 109 % of control and the T/C [15] was 122 % of control.
